US20230312550A1, “N-(2-(4-CYANOTHIAZOLIDIN-3-YL)-2-OXOETHYL)-QUINOLINE-4-CARBOXAMIDES” (AstraZeneca AB, priority 2020, published 2023)
≈ marks a conversion by molar mass, not a printed value.

Experiments:
[1] = target: Prolyl endopeptidase, Prolyl Oligopeptidase (hPREP) (Homo sapiens (Human), UniProt P48147); test: hPrep inhibition assay; format: biochemical; conditions: hPREP 0.6 nM, Z-Gly-Pro-amino-methylcoumarin 50 μM; read-out: PREP IC50
How it was run: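 Fluorogenic read-out (340 nm excitation, 460 nm emission) after 20 min at rt, using 50 μM final Z-Gly-Pro-aminomethylcoumarin and 0.6 nM final enzyme, following 15 min compound preincubation. Buffer pH 7.5 with glutathione and Triton X-100. IC50 via one-site model on % inhibition vs log concentration.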

Caco-2 cell permeability = conditions: human
Protocol: Caco-2 cell permeability was measured as described in Mol Pharm 2017, 14, 1601.

FAP = FAP (Homo sapiens (Human), UniProt Q12884); test: hFAP inhibition assay; format: biochemical; conditions: Ala-Pro-AMC 20 μM, n = 1 or geometric mean n = 2-3
How it was run: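 Compounds (10-point, 3-fold dilutions from 50 μM top) were preincubated 15 min at rt in the dark with 0.48 nM hFAP in pH 7.4 Tris/NaCl/Chaps buffer. Reaction was started with substrate (40 μM solution) and ran 30 min at rt. Read by fluorescence (340/460 nm); IC50 from one-site fit.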

Kinetic solubility = conditions: kinetic from dmso stock
Protocol: Kinetic solubility was measured as described in Comput Aided Mol Des 2015, 29, 795.

[2] = Metabolic stability in human liver microsomes (HLM); conditions: human
Protocol: Metabolic stability in HLM was measured as described in J Comput Aided Mol Des 2015, 29, 795.

[3] = target: human Fibroblast activation protein alpha (hFAP) (Homo sapiens (Human), UniProt Q12884); test: hFAP inhibition assay (tight binders); format: biochemical; conditions: Ala-Pro-AMC 20 μM, n = 1 or geometric mean n = 2-6; also: hFAP 2.4 pM
Protocol: The plates were read on a PHERAstar® reader with excitation 340 nm and emission 460 nm. Data were analyzed in Genedata Screener®. IC50 values were determined by plotting % inhibition versus log compound concentration and using a one site dose response model.

hFAP (M39-A757) = hFAP (M39-A757) (Homo sapiens (Human), UniProt Q12884); test: hFAP binding assay (surface plasmon resonance); conditions: SPR, 20° C.; for hFAP Binding assay k(off) / hFAP Binding assay k(on): single cycle kinetics; for Kd: n = 1 or geometric mean n = 2-4
Protocol: Compounds were tested in a direct binding assay using 8K surface plasmon resonance biosensor (GE Healthcare) at 20° C. Immobilization of hFAP (M39-A757) on a CMD200M sensor chip (Xantec) was performed using standard amine coupling procedure in immobilization buffer (10 mM HEPES, 150 mM NaCl, 0.05% Tween20, pH 7.4). The surface was washed with 10 mM NaOH, 1M NaCl before being activated with EDC/NHS (GE Healthcare), followed by immobilization of hFAP (in 10 mM Acetate pH 5.0). Finally, the surface was deactivated by ethanolamine. Immobilization levels of hFAP were around 4000-6000 RU. The reference spot was treated as described, omitting the injection of hFAP. Compound concentration series were injected over the immobilized protein in increasing concentrations (2-500 nM) using single cycle kinetics in running buffer (20 mM TRIS, 150 mM NaCl, 0.05% Tween20, 1% DMSO, pH 7.4). Interaction models were fitted globally to the experimental traces, enabling determination of kon, koff and Kd.

[4] = Metabolic stability in rat hepatocytes (rHep); conditions: n = 1 or geometric mean of n = 2-3
[5] = Solubility, kinetic solubility, n = 1 or average of n = 2-3
[6] = HLM CLint, n = 1 or average of n = 2-3

Sequence of FAP (Q12884 38-760): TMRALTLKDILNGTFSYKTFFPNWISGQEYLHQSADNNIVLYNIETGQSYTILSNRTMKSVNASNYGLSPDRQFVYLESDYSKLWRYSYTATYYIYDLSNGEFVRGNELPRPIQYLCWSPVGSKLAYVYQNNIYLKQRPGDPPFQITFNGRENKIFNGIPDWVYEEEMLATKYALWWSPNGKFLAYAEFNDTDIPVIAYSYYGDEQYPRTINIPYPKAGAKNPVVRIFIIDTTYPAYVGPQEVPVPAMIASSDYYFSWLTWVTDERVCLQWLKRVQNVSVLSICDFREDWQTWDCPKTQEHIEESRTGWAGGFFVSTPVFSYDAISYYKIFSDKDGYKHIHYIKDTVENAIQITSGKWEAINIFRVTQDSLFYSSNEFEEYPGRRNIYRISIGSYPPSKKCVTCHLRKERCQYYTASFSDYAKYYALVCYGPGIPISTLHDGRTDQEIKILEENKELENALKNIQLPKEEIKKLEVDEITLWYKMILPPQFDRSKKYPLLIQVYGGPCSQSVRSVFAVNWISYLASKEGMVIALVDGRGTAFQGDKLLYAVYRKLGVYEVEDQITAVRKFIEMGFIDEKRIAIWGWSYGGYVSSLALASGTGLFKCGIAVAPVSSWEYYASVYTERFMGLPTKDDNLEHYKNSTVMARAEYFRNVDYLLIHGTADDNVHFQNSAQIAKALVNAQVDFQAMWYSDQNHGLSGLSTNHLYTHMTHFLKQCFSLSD
Sequence of human Fibroblast activation protein alpha (hFAP) (Q12884 38-760): as above
Sequence of Prolyl endopeptidase, Prolyl Oligopeptidase (hPREP) (P48147 whole entry): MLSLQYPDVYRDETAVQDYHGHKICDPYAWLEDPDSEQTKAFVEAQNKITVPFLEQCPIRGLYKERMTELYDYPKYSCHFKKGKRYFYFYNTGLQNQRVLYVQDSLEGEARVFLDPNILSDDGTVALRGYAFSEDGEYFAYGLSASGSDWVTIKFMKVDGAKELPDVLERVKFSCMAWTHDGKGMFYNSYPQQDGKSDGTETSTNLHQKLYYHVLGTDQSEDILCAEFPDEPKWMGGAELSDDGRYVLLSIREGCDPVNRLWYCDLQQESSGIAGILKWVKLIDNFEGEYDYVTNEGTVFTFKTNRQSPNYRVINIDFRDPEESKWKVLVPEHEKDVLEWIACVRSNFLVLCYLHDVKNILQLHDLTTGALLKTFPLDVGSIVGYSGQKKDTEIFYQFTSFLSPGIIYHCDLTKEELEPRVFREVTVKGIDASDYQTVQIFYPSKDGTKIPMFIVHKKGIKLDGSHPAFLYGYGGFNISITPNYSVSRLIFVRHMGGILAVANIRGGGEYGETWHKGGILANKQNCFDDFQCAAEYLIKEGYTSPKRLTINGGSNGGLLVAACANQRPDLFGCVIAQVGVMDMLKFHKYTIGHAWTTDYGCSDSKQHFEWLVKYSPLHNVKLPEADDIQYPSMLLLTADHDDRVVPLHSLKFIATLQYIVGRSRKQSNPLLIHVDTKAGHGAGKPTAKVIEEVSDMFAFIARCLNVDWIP
Sequence of hFAP (M39-A757) (Q12884 39-757): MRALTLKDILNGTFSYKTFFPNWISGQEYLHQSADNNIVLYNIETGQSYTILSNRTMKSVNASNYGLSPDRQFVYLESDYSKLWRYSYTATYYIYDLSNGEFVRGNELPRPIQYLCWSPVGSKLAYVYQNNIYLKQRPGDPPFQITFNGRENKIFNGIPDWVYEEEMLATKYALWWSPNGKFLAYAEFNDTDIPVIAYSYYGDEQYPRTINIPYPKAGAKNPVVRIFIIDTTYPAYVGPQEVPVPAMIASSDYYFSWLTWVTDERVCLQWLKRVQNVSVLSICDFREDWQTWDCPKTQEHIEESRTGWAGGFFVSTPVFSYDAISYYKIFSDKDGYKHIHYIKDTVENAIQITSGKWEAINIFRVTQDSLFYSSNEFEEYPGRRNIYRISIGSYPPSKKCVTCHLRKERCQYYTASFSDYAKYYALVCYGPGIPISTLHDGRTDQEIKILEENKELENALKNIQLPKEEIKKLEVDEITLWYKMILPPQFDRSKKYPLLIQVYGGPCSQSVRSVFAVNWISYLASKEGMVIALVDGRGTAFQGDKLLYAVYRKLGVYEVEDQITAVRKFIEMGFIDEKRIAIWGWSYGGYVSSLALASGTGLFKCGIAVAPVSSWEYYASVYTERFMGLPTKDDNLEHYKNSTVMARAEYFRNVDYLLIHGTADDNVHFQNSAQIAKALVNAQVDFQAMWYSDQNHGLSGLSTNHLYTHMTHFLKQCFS

Structure (SMILES)	IC50 [1] [nM]	Papp (Caco-2 cell permeability) [×10⁻⁶ cm/s]	IC50 (FAP; hFAP 0.24 nM) [nM]	solubility (Kinetic solubility; [5]) [µM]	microsomal CLint [2, 6] [µL/min/mg]	IC50 [3] [nM]	hFAP Binding assay k(off) (hFAP (M39-A757)) [s⁻¹]	hFAP Binding assay k(on) (hFAP (M39-A757)) [M⁻¹ s⁻¹]	Kd (hFAP (M39-A757)) [nM]	rHep CLint [4] [μL/min/1E6]	Papp A→B (Caco-2 cell permeability) [×10⁻⁶ cm/s]	Papp B→A (Caco-2 cell permeability) [×10⁻⁶ cm/s]	efflux ratio (Caco-2 cell permeability)	IC50 (FAP; hFAP […]) [nM]	solubility (Kinetic solubility) [µM]	microsomal CLint [2] [µL/min/mg]
CO[C@H]1CCCN(c2ccc3nccc(C(=O)NCC(=O)N4CSC[C@H]4C#N)c3c2)C1 (mixture of isomers) [Example 41, N-(2-((R)-4-Cyanothiazolidin-3-yl)-2-oxoethyl)-6-((RS)-3-methoxypiperidin-1-yl)quinoline-4-carboxamide]	640	16	0.33	620	30	0.16	0.000064	680000	0.093	12						
Cc1ccc(-c2ccc3nccc(C(=O)NCC(=O)N4CSC[C@H]4C#N)c3c2)cn1 [Example 177, (R)—N-(2-(4-Cyanothiazolidin-3-yl)-2-oxoethyl)-6-(6-methylpyridin-3-yl)-quinoline-4-carboxamide]	360			40 (≈ 16.7 µg/mL)	13	0.11	0.000058	100000	0.56	7.4	1.3	22	17	0.29		
N#C[C@@H]1CSCN1C(=O)CNC(=O)c1ccnc2ccc(-c3ccnc(F)c3)cc12 [Example 124, (R)—N-(2-(4-Cyanothiazolidin-3-yl)-2-oxoethyl)-6-(2-fluoropyridin-4-yl)quinoline-4-carboxamide]	220			38 (≈ 16 µg/mL)	12	0.055	0.00028	3000000	0.094	14	0.65	39	59	0.24		
Cc1nc(C)c(-c2ccc3nccc(C(=O)NCC(=O)N4CSC[C@H]4C#N)c3c2)o1 [Example 215, (R)—N-(2-(4-Cyanothiazolidin-3-yl)-2-oxoethyl)-6-(2,4-dimethyloxazol-5-yl)quinoline-4-carboxamide]	250			350 (≈ 148 µg/mL)	8	0.12	0.00017	1800000	0.095	3.9	0.48	29	59	0.41		
Cc1noc(C)c1-c1ccc2nccc(C(=O)NCC(=O)N3CSC[C@H]3C#N)c2c1 [Example 216, (R)—N-(2-(4-Cyanothiazolidin-3-yl)-2-oxoethyl)-6-(3,5-dimethylisoxazol-4-yl)quinoline-4-carboxamide]	190			710 (≈ 299 µg/mL)	58	1.7	0.0009	5200000	0.27	17	0.62	40	65	2.4		
Cc1ncccc1-c1ccc2nccc(C(=O)NCC(=O)N3CSC[C@H]3C#N)c2c1 [Example 128, (R)—N-(2-(4-Cyanothiazolidin-3-yl)-2-oxoethyl)-6-(2-methylpyridin-3-yl)-quinoline-4-carboxamide]	110			960 (≈ 401 µg/mL)	27	0.24	0.00066	5400000	0.15	11	0.57	26	45	0.45		
N#C[C@@H]1CSCN1C(=O)CNC(=O)c1ccnc2ccc(N3CCCC[C@H](F)C3)cc12 [Example 60, N-(2-((R)-4-Cyanothiazolidin-3-yl)-2-oxoethyl)-6-((S)-3-fluoroazepan-1-yl)quinoline-4-carboxamide]	86			160 (≈ 70.6 µg/mL)	210	0.14	0.00017	1700000	0.099	120				0.22		
N#C[C@@H]1CSCN1C(=O)CNC(=O)c1ccnc2ccc(N3CCCC4(CC4)C3)cc12 [Example 46, (R)—N-(2-(4-Cyanothiazolidin-3-yl)-2-oxoethyl)-6-(5-azaspiro[2.5]octan-5-yl)quinoline-4-carboxamide]	110					0.082	0.000062	3000000	0.02	72				0.29	190 (≈ 82.8 µg/mL)	190
N#C[C@@H]1CSCN1C(=O)CNC(=O)c1ccnc2ccc(N3CC[C@H](F)C3)cc12 [Example 51, N-(2-((R)-4-Cyanothiazolidin-3-yl)-2-oxoethyl)-6-((S)-3-fluoropyrrolidin-1-yl)quinoline-4-carboxamide]	130			56 (≈ 23.2 µg/mL)	14	0.064	0.00011	5600000	0.021	24				0.21		
CC(C)n1nccc1-c1ccc2nccc(C(=O)NCC(=O)N3CSC[C@H]3C#N)c2c1 [Example 197, (R)—N-(2-(4-Cyanothiazolidin-3-yl)-2-oxoethyl)-6-(1-isopropyl-1H-pyrazol-5-yl)quinoline-4-carboxamide]	1900			6 (≈ 2.61 µg/mL)	15	0.42	0.000066	88000	0.75	5.3				0.72		
C[C@H]1COC[C@H](C)N1c1ccc2nccc(C(=O)NCC(=O)N3CSC[C@H]3C#N)c2c1 [Example 103, N-(2-((R)-4-Cyanothiazolidin-3-yl)-2-oxoethyl)-6-((3S,5S)-3,5-dimethyl-morpholino)quinoline-4-carboxamide]	580			> 1000	54	0.11	0.00010	3000000	0.033	23				0.31		
